Laboratory results as given in EP0514268A1, “Substituted amino acid azetidinyl pyridone derivatives, their preparation and use as medicines” (LABORATORIOS DEL DR. ESTEVE, S.A., priority 1991, dated 1992).
In brackets after ≈: the same amount, converted by molar mass.

What was measured:
[1] = test system: Staph. aureus ATCC 25178; experiment: Antimicrobial activity, agar dilution; assay type: cell-based, Staphylococcus aureus; conditions: Staphylococcus aureus, ATCC25178, 20 h, Agar Dextrose dilutions, 37°C, 20 heures, read-out: Activité pharmacologique antimicrobienne (concentrations)
Text: (§1) L'activité pharmacologique antimicrobienne de ces composés a été étudiée selon les références exposées ci-dessous.
(§2) Activité pharmacologique antimicrobienne : G.L. Daquet et Y.A. Chabbect, techniques en bactériologie, Vol. 3, Flammarion Médecine-Sciences, Paris 1972, et W.B. Hugo et A.D. Rusell, Pharmaceutical Microbiology, Blackwell Scientific Publications, London, 1977.
(§3) Milieu de culture et solvant : Agar d'antibiotiques n° 1 (Oxoid CM 327) Bouillon de triptone-soja (Oxoid CM 129) Solution Physiologique Ringer 1/4 (Oxoid BR 52) Agar Dextrose (BBL 11165)
(§4) Microorganismes : "Bacillus subtilis" ATCC 6633 "Citrobacter freundii" ATCC 112606 "Enterobacter aerogenes" ATCC 15038 "Enterobacter cloacae" ATCC 23355 "Bacillus cereus" ATCC 1178 "Escherichia coli" ATCC 10799 "Escherichia coli" ATCC 23559 "Klebsiella pneumoniae" ATCC 10031 "Proteus vulgaris" ATCC 8427 "Morg. morganii" ATCC 8019 "Pseudomonas aeruginosa" ATCC 9721 "Pseudomonas aeruginosa" ATCC 10145 "Salmonella typhimurium" ATCC 14028 "Salmonella typhimurium" ATCC 6539 "Serratia marcescens" ATCC 13880 "Shigella flexnerii" ATCC 12022 "Staphylococcusepidermis" ATCC 155-1 "Staphylococcus aureus" ATCC 25178 "Streptococcus faecalis" ATCC 10541.
(§5) Chacun des microorganismes est ensemencé par strie dans des tubes d'Agar d'antibiotiques n° 1, et mis en incubation pendant 20 heures à 37°C. Ensuite, on prend une anse de culture, on ensemence dans un bouillon de Triptone-soja et on incube pendant 20 heures à 37°C. On dilue à 1/4 la culture obtenue avec une solution physiologique Ringer, de façon à obtenir une suspension normalisée de […] pour chaque organisme.
(§6) A partir d'une solution de 100 µg/ml, chaque produit est dilué dans l'Agar Dextrose (préalablement fondu et maintenu à 50°C) par dilutions successives de façon à obtenir les concentrations suivantes : 64-32-16-8-4-2-1-0,5-0,25-0,125 µg de dérivé/ml du milieu.
(§7) Postérieurement, chaque concentration de chaque produit est répartie dans des boîtes de Petri de 10 cm de diamètre, à raison de 10 ml de milieu par boîte et autant de boîtes que de microorganismes à tester.
(§8) Une fois le milieu refroidi, les boîtes sont ensemencées avec les inoculations à raison de 0,4 ml d'inoculation par boîte. On les étend avec une anse de Driglasky et on recueille le surnageant. Les boîtes ensemencées sont incubées à 37°C pendant 20 heures.
(§9) Les résultats obtenus sont décrits dans les tableaux suivants. Les concentrations sont données en µg/ml.

[2] = test system: Sal. typhimurium ATCC 14028; experiment: Antimicrobial activity, agar dilution; assay type: cell-based, Salmonella typhimurium; conditions: Salmonella enterica, 20 h, Agar Dextrose dilutions, 37°C, 20 heures, read-out: Activité pharmacologique antimicrobienne (concentrations)
Text: as §1, §2, §3, §4, §5, §6, §7, §8, §9

[3] = test system: Kleb. pneumoniae ATCC 10031; experiment: Antimicrobial activity, agar dilution; assay type: cell-based, Klebsiella pneumoniae; conditions: Klebsiella pneumoniae, ATCC10031, 20 h, Agar Dextrose dilutions, 37°C, 20 heures, read-out: Activité pharmacologique antimicrobienne (concentrations)
Text: as §1, §2, §3, §4, §5, §6, §7, §8, §9

[4] = test system: Ent. cloacae ATCC 23355; experiment: Antimicrobial activity, agar dilution; assay type: cell-based, Enterobacter cloacae; conditions: Enterobacter cloacae, ATCC23355, 20 h, Agar Dextrose dilutions, 37°C, 20 heures, read-out: Activité pharmacologique antimicrobienne (concentrations)
Text: as §1, §2, §3, §4, §5, §6, §7, §8, §9

[5] = test system: Sal. typhi ATCC 6539; experiment: Antimicrobial activity, agar dilution; assay type: cell-based; conditions: Salmonella enterica, 20 h, read-out: Activité pharmacologique antimicrobienne (concentrations)
Text: as §1, §2, §3, §4, §5, §6, §7, §8, §9

[6] = test system: Bacillus subtilis ATCC 6633; experiment: Antimicrobial activity, agar dilution; assay type: cell-based; conditions: ATCC6633, 20 h, Agar Dextrose dilutions, 37°C, 20 heures, read-out: Activité pharmacologique antimicrobienne (concentrations)
Text: as §1, §2, §3, §4, §5, §6, §7, §8, §9

[7] = test system: Staph. epidermidis ATCC 155-1; experiment: Antimicrobial activity, agar dilution; assay type: cell-based; conditions: Staphylococcus epidermidis, ATCC155, 20 h, Agar Dextrose dilutions, 37°C, 20 heures, read-out: Activité pharmacologique antimicrobienne (concentrations)
Text: as §1, §2, §3, §4, §5, §6, §7, §8, §9

[8] = test system: Ps. aeruginosa ATCC 9721; experiment: Antimicrobial activity, agar dilution; assay type: cell-based; conditions: Pseudomonas aeruginosa, ATCC9721, 20 h, Agar Dextrose dilutions, 37°C, 20 heures, read-out: Activité pharmacologique antimicrobienne (concentrations)
Text: as §1, §2, §3, §4, §5, §6, §7, §8, §9

[9] = test system: Escherichia coli ATCC 10799; experiment: Antimicrobial activity, agar dilution; assay type: cell-based; conditions: Escherichia coli, ATCC10799, 20 h, Agar Dextrose dilutions, 37°C, 20 heures, read-out: Activité pharmacologique antimicrobienne (concentrations)
Text: as §1, §2, §3, §4, §5, §6, §7, §8, §9

[10] = test system: Shigella flexnerii ATCC 12022; experiment: Antimicrobial activity, agar dilution; assay type: cell-based; conditions: ATCC12022, 20 h, Agar Dextrose dilutions, 37°C, 20 heures, read-out: Activité pharmacologique antimicrobienne (concentrations)
Text: as §1, §2, §3, §4, §5, §6, §7, §8, §9

[11] = test system: Proteus vulgaris ATCC 8427; experiment: Antimicrobial activity, agar dilution; assay type: cell-based; conditions: Proteus vulgaris, ATCC8427, 20 h, Agar Dextrose dilutions, 37°C, 20 heures, read-out: Activité pharmacologique antimicrobienne (concentrations)
Text: as §1, §2, §3, §4, §5, §6, §7, §8, §9

[12] = test system: Escherichia coli ATCC 23559; experiment: Antimicrobial activity, agar dilution; assay type: cell-based; conditions: Escherichia coli, ATCC23559, 20 h, Agar Dextrose dilutions, 37°C, 20 heures, read-out: Activité pharmacologique antimicrobienne (concentrations)
Text: as §1, §2, §3, §4, §5, §6, §7, §8, §9

[13] = test system: Bacillus cereus ATCC 11778; experiment: Antimicrobial activity, agar dilution; assay type: cell-based; conditions: Bacillus cereus, ATCC11778, 20 h, Agar Dextrose dilutions, 37°C, 20 heures, read-out: Activité pharmacologique antimicrobienne (concentrations)
Text: as §1, §2, §3, §4, §5, §6, §7, §8, §9

[14] = test system: Ps. aeruginosa ATCC 10145; experiment: Antimicrobial activity, agar dilution; assay type: cell-based; conditions: Pseudomonas aeruginosa, ATCC10145, 20 h, Agar Dextrose dilutions, 37°C, 20 heures, read-out: Activité pharmacologique antimicrobienne (concentrations)
Text: as §1, §2, §3, §4, §5, §6, §7, §8, §9

[15] = test system: Morg. morganii ATCC 8019; experiment: Antimicrobial activity, agar dilution; assay type: cell-based; conditions: Morganella morganii, ATCC8019, 20 h, Agar Dextrose dilutions, 37°C, 20 heures, read-out: Activité pharmacologique antimicrobienne (concentrations)
Text: as §1, §2, §3, §4, §5, §6, §7, §8, §9

[16] = Solubility in water and at pH 7.4; assay type: physicochemical
Text: Un grand nombre des composés de l'invention manifestent une augmentation de la solubilité dans l'eau ainsi que de la solubilité à pH 7,4 lorsqu'on compare avec les composés de référence. L'augmentation de solubilité au pH physiologique peut favoriser l'absorption du produit et la solubilité élevée dans l'eau permet l'administration du composé par voie parentérale.

[17] = test system: Serr. marcescens ATCC 13880; experiment: Antimicrobial activity, agar dilution; assay type: cell-based, Serratia marcescens; conditions: Serratia marcescens, ATCC13880, 20 h, Agar Dextrose dilutions, 37°C, 20 heures, read-out: Activité pharmacologique antimicrobienne (concentrations)
Text: as §1, §2, §3, §4, §5, §6, §7, §8, §9

[18] = test system: Ent. aerogenes ATCC 15038; experiment: Antimicrobial activity, agar dilution; assay type: cell-based, Enterobacter aerogenes; conditions: Klebsiella aerogenes, ATCC15038, 20 h, Agar Dextrose dilutions, 37°C, 20 heures, read-out: Activité pharmacologique antimicrobienne (concentrations)
Text: as §1, §2, §3, §4, §5, §6, §7, §8, §9

[19] = test system: Strep. faecalis ATCC 10541; experiment: Antimicrobial activity, agar dilution; assay type: cell-based, Streptococcus faecalis; conditions: Enterococcus faecalis, ATCC10541, 20 h, Agar Dextrose dilutions, 37°C, 20 heures, read-out: Activité pharmacologique antimicrobienne (concentrations)
Text: as §1, §2, §3, §4, §5, §6, §7, §8, §9

[20] = test system: Citr. freundii ATCC 11606; experiment: Antimicrobial activity, agar dilution; assay type: cell-based, Citrobacter freundii; conditions: Citrobacter freundii, ATCC11606, 20 h, Agar Dextrose dilutions, 37°C, 20 heures, read-out: Activité pharmacologique antimicrobienne (concentrations)
Text: as §1, §2, §3, §4, §5, §6, §7, §8, §9

Compound	MIC [1]	MIC [2]	MIC [3]	MIC [4]	MIC [5]	MIC [6]	MIC [7]	MIC [8]	MIC [9]	MIC [10]	MIC [11]	MIC [12]	MIC [13]	MIC [14]	MIC [15]	solubility ([16]; pH 7)	solubility ([16]; water)	MIC [17]	MIC [18]	MIC [19]	also measured
NCC(=O)NC1CN(c2nc3c(cc2F)c(=O)c(C(=O)O)cn3-c2ccc(F)cc2F)C1 [Exemple 4bG]	1 µg/mL (≈ 2.24 µM)	4 µg/mL (≈ 8.94 µM)	1 µg/mL (≈ 2.24 µM)	1 µg/mL (≈ 2.24 µM)	1 µg/mL (≈ 2.24 µM)	1 µg/mL (≈ 2.24 µM)	2 µg/mL (≈ 4.47 µM)	16 µg/mL (≈ 35.8 µM)	2 µg/mL (≈ 4.47 µM)	0.5 µg/mL (≈ 1.12 µM)	8 µg/mL (≈ 17.9 µM)	0.5 µg/mL (≈ 1.12 µM)	1 µg/mL (≈ 2.24 µM)	> 32 µg/mL	4 µg/mL (≈ 8.94 µM)	7.6 µg/mL (≈ 17 µM)	> 500 µg/mL	16 µg/mL (≈ 35.8 µM)	1 µg/mL (≈ 2.24 µM)	16 µg/mL (≈ 35.8 µM)	MIC [20]: 1 µg/mL (≈ 2.24 µM)
CC(C)C[C@H](N)C(=O)NC1CN(c2nc3c(cc2F)c(=O)c(C(=O)O)cn3-c2ccc(F)cc2F)C1 [Exemple 4bL, chlorhydratede l'acide 7-(3-Leu-amino-1-azétidinyl)-1-(2,4-difluorophényl)-6-fluoro-1,4-dihydro-4-oxo-1,8-naphtyridine-3-carboxylique]	4 µg/mL	1 µg/mL	0.12 µg/mL	0.5 µg/mL	1 µg/mL	0.25 µg/mL	1 µg/mL	4 µg/mL	1 µg/mL	0.25 µg/mL	2 µg/mL	0.25 µg/mL	0.5 µg/mL	8 µg/mL	2 µg/mL	23.1 µg/mL	> 500 µg/mL	2 µg/mL	0.5 µg/mL	1 µg/mL	MIC [20]: 1 µg/mL
C[C@H](N)C(=O)N[C@@H]1CN(c2cc3c(cc2F)c(=O)c(C(=O)O)cn3-c2ccc(F)cc2F)[C@H]1C [Exemple 4eA]	1 µg/mL (≈ 2.11 µM)	2 µg/mL (≈ 4.22 µM)	2 µg/mL (≈ 4.22 µM)	2 µg/mL (≈ 4.22 µM)	2 µg/mL (≈ 4.22 µM)	0.5 µg/mL (≈ 1.05 µM)	16 µg/mL (≈ 33.7 µM)	8 µg/mL (≈ 16.9 µM)	2 µg/mL (≈ 4.22 µM)	0.5 µg/mL (≈ 1.05 µM)	16 µg/mL (≈ 33.7 µM)	1 µg/mL (≈ 2.11 µM)	1 µg/mL (≈ 2.11 µM)	8 µg/mL (≈ 16.9 µM)	4 µg/mL (≈ 8.43 µM)	> 500 µg/mL	> 500 µg/mL	8 µg/mL (≈ 16.9 µM)	2 µg/mL (≈ 4.22 µM)	8 µg/mL (≈ 16.9 µM)	MIC [20]: 2 µg/mL (≈ 4.22 µM)
